Measurements published in patent US4167580A, “Compositions and method of use to treat arthritic disease with m-fluorobenzimidoylacetonitrile” (American Cyanamid Company, priority 1978, dated 1979).

What was measured:
[1] = system: arthritic paw swelling; conditions: Wong et al. 1973; Bobalick et al. 1974; cited from earlier work
[2] = system: Erythema in Guinea Pigs; test: Ultraviolet induced erythema in guinea pigs, topical application; type: in vivo, Albino guinea pigs
Description: Albino guinea pigs were depilitated on their flanks, the evening before testing, with a standard mixture of barium sulfide and gum acacia. On the morning of the test at 0 hour they were restrained in a plastic container which allows exposure of 3 circular spots. They were then exposed to ultraviolet irradiation from a "Hanovia" Kromayer lamp, model 10, for 60 seconds. Immediately after exposure to ultraviolet light, the guinea pigs were treated by dissolving the test compound in ethyl alcohol at various concentrations and swabbing the UV exposed areas with the aid of a cottom tipped applicator stick. At one and four hours, the degree of erythema for each of the three sites was assessed according to the following scoring system: 0=no erythema, 0.5=incomplete circle or faint erythema and 1.0=complete circle of distinct erythema. Thus, the maximum score for each animal was 3.0.

[3] = system: Adjuvant Arthritis in Rats; test: Adjuvant induced arthritis in rats (chronic inflammation with joint destruction); type: in vivo, Royal Hart, Wistar strain rats; conditions: once daily days 0-13
Text: Adjuvant induced experimental polyarthritis is a specific systemic disease of the rat which shares interesting similarities with rheumatoid arthritis. Specifically, the histology of the two diseases bears a remarkable resemblance as shown by C. M. Pearson et al., Am. J. Pathol. 42, 73 (1963). E. M. Glenn, Am. J. Vet. Res. 27 (116), 339 (1966) has classified adjuvant induced polyarthritis as a crippling and permanent deformity resulting from diffuse connective tissue involvement around certain susceptible joints in the rat. Zahiri et al., Can. Med. Ass. J. 101, 269 (1969) have shown that the fusiform swelling of the distal joints is associated with edema, congestion and synovitis including pannus formation, all of which precede the ultimate destruction of bone and cartilage. Furthermore, Zahiri et al. indicate that the cartilage destruction in the joint is due to an invasive pannus which originates in the marginal synovium and extends across the articular surface to erode it. […] See S. Wong et al., J. Pharm. & Exptl. Ther. 185, 127 (1973) and G. R. Bobalick et al., Agents & Actions 4, 364 (1974). In a similar manner, inhibition of the progress of arthritis in paws of rats treated with the compounds of this invention also lessens associated joint deterioration.
Groups of three Royal Hart, Wistar strain rats weighing 200±10 grams each were injected intradermally in the right hind paw with Freund's adjuvant (dried human tubercle bacilli in a mineral oil vehicle) at a dose of 2 mg./kg. of body weight. Test compounds were administered orally in a 1.5% staruh vehicle at various doses once daily on days 0 through 13 post challenge. Control rats were treated in a similar manner, but given only starch vehicle. On the 14th and 21st day post challenge the diameter of the injected paw (primary lesion) was measured by micrometer caliper. The volume of inflamed paws were estimated from these measurements and the results are expressed as percent inhibition of swelling as compared to controls. At the same time, the other inflamed sites, such as ears, paws and tail (secondary lesions) were observed and each rat was graded as to degree of inflammation and swelling present. The grading is based on a scale of 0 to 24, where 0 represents a complete absence of induced arthritic nodules and 24 represents the maximum degree of inflammation. The mean grade for each treated group is calculated and the effects of each compound are expressed as percent inhibition of the control grade. Table III records the results of these tests conducted with benzimidoylacetonitrile, m-fluorobenzimidoylacetonitrile and p-fluorobenzimidoylacetonitrile and known anti-inflammatory agents. The active compounds of the present invention suppress the progression of the arthritis and associated joint deterioration. Of particular interest is the low mortality observed with benzimidoylacetonitrile treated rats relative to either controls or rats treated with standard compounds.

[4] = system: Body Temperature of Pyretic Rats; test: Body temperature in yeast induced pyrexia; type: in vivo, Royal Hart, Wistar strain rats; conditions: 250 mg./kg. by gavage 17 hours after yeast; measured 19 hours post challenge
Description: The effect of benzimidoylacetonitrile on body temperature in yeast induced pyrexia was determined by the following procedure. Groups of three Royal Hart, Wistar strain rats weighing 80±5 grams were injected subcutaneously in the nape of the neck with 0.6 ml. of a 40% suspension of dried brewers yeast in distilled water. […] At 19 hours post challenge the rectal temperature of each rat was measured with an electric thermometer. Each dose response experiment was replicated one or more times.

[5] = system: Carrageenin Induced Edema of the Rat Paw; test: Carrageenin induced edema of the rat paw (acute anti-inflammatory activity); type: in vivo, Royal Hart, Wistar strain rats; conditions: 25 mg./kg. by gavage, 5 hours after drug (4 hours after carrageenin)
Description: In determining the acute anti-inflammatory activity of benzimidoylacetonitrile, Royal Hart, Wistar strain rats ranging in weight from 80 to 90 grams were used. The rats were fasted overnight prior to dosing but had free access to water. The compound was administered in aqueous suspension, by gavage, in a volume of 1.7 ml. per 50 grams of rat [corresponds by hydration volume used by Winter et al., Proc. Soc. […] The phlogistic agent used was carrageenin prepared as a sterile 1% suspension in 0.9% aqueous sodium chloride for routine testing. A volume of 0.05 ml. was injected through a 26 gauge needle into the planter tissue of the right hind paw. Measurements were made 5 hours after drug administration (4 hours after carrageenin challenge). Volumes of both the normal and carrageenin inflamed feet were determined. The difference between the two measurements is considered to be the increased edema due to the carrageenin administration.

COc1ccc2c(c1)c(CC(=O)O)c(C)n2C(=O)c1ccc(Cl)cc1 [Indomethacin]
arthritic paw swelling (in words) [1]: inhibit arthritic paw swelling | joint and bone deterioration (in words) [1]: prevent joint and bone deterioration | Erythema Score (Avg.) 1 Hr. ([2]; 0.25% in ethyl alcohol, maximum score 3.0, control 2.5): 1.8 | Erythema Score (Avg.) 4 Hr. ([2]; 0.25% in ethyl alcohol, maximum score 3.0, control 3.0): 2.5 | Erythema Score (Avg.) 1 Hr. ([2]; 0.5% in ethyl alcohol, maximum score 3.0, control 2.5): 1.5 | Erythema Score (Avg.) 4 Hr. ([2]; 0.5% in ethyl alcohol, maximum score 3.0, control 3.0): 2.4 | Erythema Score (Avg.) 1 Hr. ([2]; 1% in ethyl alcohol, maximum score 3.0, ethyl alcohol control 2.5): 0.7 | Erythema Score (Avg.) 4 Hr. ([2]; 1% in ethyl alcohol, maximum score 3.0, ethyl alcohol control 3.0): 2.5 | % Inhibition of Control Grade (secondary lesion), Day 14 ([3]; 0.25 mg./kg. oral): 22% | % Inhibition of Control Grade (secondary lesion), Day 21 ([3]; 0.25 mg./kg. oral): 4% | % Inhibition of Swelling (primary lesion), Day 14 ([3]; 0.25 mg./kg. oral): 30% | % Inhibition of Swelling (primary lesion), Day 21 ([3]; 0.25 mg./kg. oral): 4% | Dead/Treated At 21 Days ([3]; 0.25 mg./kg. oral): 0/9 | Mean Weight Gain, Day 14 ([3]; 0.25 mg./kg. oral): 51 grams | Mean Weight Gain, Day 21 ([3]; 0.25 mg./kg. oral): 57 grams | % Inhibition of Control Grade (secondary lesion), Day 14 ([3]; 0.5 mg./kg. oral): 25% | % Inhibition of Control Grade (secondary lesion), Day 21 ([3]; 0.5 mg./kg. oral): 17% | % Inhibition of Swelling (primary lesion), Day 14 ([3]; 0.5 mg./kg. oral): 40% | % Inhibition of Swelling (primary lesion), Day 21 ([3]; 0.5 mg./kg. oral): 20% | Dead/Treated At 21 Days ([3]; 0.5 mg./kg. oral): 5/54 | Mean Weight Gain, Day 14 ([3]; 0.5 mg./kg. oral): 53 grams | Mean Weight Gain, Day 21 ([3]; 0.5 mg./kg. oral): 51 grams | % Inhibition of Control Grade (secondary lesion), Day 14 ([3]; 1 mg./kg. oral): 34% | % Inhibition of Control Grade (secondary lesion), Day 21 ([3]; 1 mg./kg. oral): 20% | % Inhibition of Swelling (primary lesion), Day 14 ([3]; 1 mg./kg. oral): 46% | % Inhibition of Swelling (primary lesion), Day 21 ([3]; 1 mg./kg. oral): 19% | Dead/Treated At 21 Days ([3]; 1 mg./kg. oral): 9/54 | Mean Weight Gain, Day 14 ([3]; 1 mg./kg. oral): 63 grams | Mean Weight Gain, Day 21 ([3]; 1 mg./kg. oral): 65 grams | % Inhibition of Control Grade (secondary lesion), Day 14 ([3]; 2 mg./kg. oral): 38% | % Inhibition of Control Grade (secondary lesion), Day 21 ([3]; 2 mg./kg. oral): 25% | % Inhibition of Swelling (primary lesion), Day 14 ([3]; 2 mg./kg. oral): 51% | % Inhibition of Swelling (primary lesion), Day 21 ([3]; 2 mg./kg. oral): 24% | Dead/Treated At 21 Days ([3]; 2 mg./kg. oral): 8/57 | Mean Weight Gain, Day 14 ([3]; 2 mg./kg. oral): 68 grams | Mean Weight Gain, Day 21 ([3]; 2 mg./kg. oral): 68 grams | Decrease In Body Temp. [4]: 2.5 °C | C/T Edema Ratio (edema of control animals/edema of treated animals) [5]: 2.9
